Measured values reported in patent US7358359B2, “Antibacterial agents” (University of Washington, priority 2003, dated 2008).
Values after ≈ are worked out from the molar mass of the structure shown.

Tests used:
[1] = system: Serratia marcescens; assay: MIC vs enteric organisms: Serratia marcescens; type: cell-based; conditions: S. marc., MIC key class
Procedure: (§1) Bacterial isolates were cultivated from −70° C. frozen stocks by two consecutive overnight passages at 35° C. in ambient air on 5% blood agar (Remel, Lenexa, Kans.). Clinical isolates tested were from a collection composed of isolates collected during clinical trials and recent clinical isolates obtained from various geographically diverse hospitals in the US. Quality control and primary panel strains were from the American Type Culture Collection (ATCC; Rockville, Md.), with the exception of P. aeruginosa PAO200, a strain with a deletion of the mexABoprM genes that was received from Dr. H. Schweizer.
(§2) Minimum Inhibitory Concentrations (MICs) were determined by the broth microdilution method in accordance with the National Committee for Clinical Laboratory Standards (NCCLS) guidelines. In brief, organism suspensions were are adjusted to a 0.5 McFarland standard to yield a final inoculum between 3×10^5 and 7×10^5 colony-forming units (CFU)/mL. Drug dilutions and inocula were made in sterile, cation adjusted Mueller-Hinton Broth (Remel). An inoculum volume of 100 μl was added to wells containing 100 μl of broth with 2-fold serial dilutions of drug. All inoculated microdilution trays were incubated in ambient air at 35° C. for 18-24 hours. Following incubation, the lowest concentration of the drug that prevented visible growth was recorded as the MIC.

[2] = system: Pseudomonas aeruginosa cystic fibrosis isolate 3198; assay: MIC vs cystic fibrosis isolate of P. aeruginosa 3198 (sensitive to most antibacterials); type: cell-based; conditions: strain 3198, Sensitive, LpxC inhibitors, MIC key class
Procedure: as §1, §2

[3] = system: Enterobacter aerogenes; assay: MIC vs enteric organisms: Enterobacter aerogenes; type: cell-based; conditions: Klebsiella aerogenes; E. aer.; MIC key class
Procedure: as §1, §2

[4] = system: S. aureus 29213; assay: MIC broth microdilution, standard panel: S. aureus 29213; type: cell-based; conditions: Staphylococcus aureus, standard panel of organisms
Outline: (§3)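 Values come from NCCLS-style broth microdilution: bacteria at 3×10^5–7×10^5 CFU/mL final meet twofold drug dilutions in cation-adjusted Mueller-Hinton broth, incubation runs 18-24 hours at 35° C., and growth is scored visually.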

[5] = system: Pseudomonas aeruginosa cystic fibrosis isolate 3224; assay: MIC vs cystic fibrosis isolate of P. aeruginosa 3224; type: cell-based; conditions: strain 3224, Tobra R, LpxC inhibitors, MIC key class
Procedure: as §1, §2

[6] = system: Stenotrophomonas maltophilia; assay: MIC vs non-fermenting organisms: Stenotrophomonas maltophilia; type: cell-based; conditions: Stenotrophomonas maltophilia, S. malt.; MIC key class; read-out: MIC
Procedure: as §1, §2

[7] = system: Proteus mirabilis; assay: MIC vs enteric organisms: Proteus mirabilis; type: cell-based; conditions: P. mir., MIC key class
Procedure: as §1, §2

[8] = system: Klebsiella pneumoniae; assay: MIC vs enteric organisms: Klebsiella pneumoniae; type: cell-based; conditions: K. pneu., MIC key class
Procedure: as §1, §2

[9] = system: Klebsiella oxytoca; assay: MIC vs enteric organisms: Klebsiella oxytoca; type: cell-based; conditions: K. oxy., MIC key class
Procedure: as §1, §2

[10] = system: Burkholderia cepacia; assay: MIC vs non-fermenting organisms: Burkholderia cepacia; type: cell-based; conditions: Burkholderia cepacia, B. cepacia; MIC key class; read-out: MIC
Procedure: as §1, §2

[11] = system: P. aeruginosa PAO200 mexAB; assay: MIC broth microdilution, standard panel: P. aeruginosa PAO200 mexAB; type: cell-based; conditions: Pseudomonas aeruginosa, PAO200MEXAB, read-out: MIC P. aeruginosa PAO200 mexAB
Outline: as §3

[12] = system: P. aeruginosa 27853; assay: MIC broth microdilution, standard panel: P. aeruginosa 27853; type: cell-based; conditions: Pseudomonas aeruginosa, standard panel of organisms
Outline: as §3

[13] = target: T1, P. aeruginosa LpxC (Pseudomonas aeruginosa, UniProt P47205); assay: P. aeruginosa LpxC Inhibition Assay; type: biochemical; conditions: 2 nM P. aeruginosa LpxC, 90 min, room temperature; read-out: IC50 (nM), Enzyme inhibitory activity
T1 sequence (P47205 1-303): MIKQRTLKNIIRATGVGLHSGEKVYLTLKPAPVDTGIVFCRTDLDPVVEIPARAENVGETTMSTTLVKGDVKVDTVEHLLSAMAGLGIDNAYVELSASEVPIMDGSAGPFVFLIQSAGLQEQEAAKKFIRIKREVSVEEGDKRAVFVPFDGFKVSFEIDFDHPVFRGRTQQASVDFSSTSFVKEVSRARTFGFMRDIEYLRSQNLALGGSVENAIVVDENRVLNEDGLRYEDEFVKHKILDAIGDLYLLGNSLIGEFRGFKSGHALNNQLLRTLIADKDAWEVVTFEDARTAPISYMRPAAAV
Procedure: The assay followed the general method of Hyland et al (Journal of Bacteriology 1997 179, 2029-2037: Cloning, expression and purification of UDP-3-O-acyl-GlcNAc deacetylase from Pseudomonas aeruginosa: a metalloamidase of the lipid A biosynthesis pathway) and the radiolabeling procedure is according to Kline et al. supra. Briefly, samples were incubated with 2 nM P. aeruginosa LpxC and 150 nM [3H-Ac]-UDP-3-OR-3-hydroxydecanoyl)-GlcNAc in a total volume of 50 uL for 90 min at room temperature. Reactions were carried out in 96-well polypropylene plates in 50 mM sodium phosphate buffer, pH 7.5, containing 1 mg/mL BSA. Reactions were stopped by the addition of 180 uL of a 3% suspension of activated charcoal powder in 100 mM sodium acetate, pH 7.5. Supernatants were clarified by centrifugation. A portion of the clarified supernatant, containing the enzymatically released [3H]-acetate, was transferred to opaque white 96-well plates containing scintillation fluid. The radioactivity was measured in a Perkin-Elmer/Wallac Trilux Microbeta counter.

[14] = system: E. coli 25922; assay: MIC broth microdilution, standard panel: E. coli 25922; type: cell-based; conditions: Escherichia coli, standard panel of organisms
Outline: as §3

[15] = system: Pseudomonas aeruginosa cystic fibrosis isolate 3317; assay: MIC vs cystic fibrosis isolate of P. aeruginosa 3317 (resistant to aztreonam); type: cell-based; conditions: strain 3317, Aztr. R, LpxC inhibitors, MIC key class
Procedure: as §1, §2

## C[C@@H](O)[C@H](NC(=O)c1ccc(C#CC#Cc2ccc(NC(=O)CNc3ccccn3)cc2)cc1)C(=O)NO [Example 801, N-{(1S,2R)-2-hydroxy-1-[(hydroxyamino)carbonyl]propyl}-4-[4-(4-{[(pyridin-2-ylamino)acetyl]amino}phenyl)buta-1,3-diynyl]benzamide]
[1]
  MIC: < 6.25 µg/mL
[2]
  MIC: < 6.25 µg/mL
[3]
  MIC: 6.25 to 50 µg/mL (≈ 12.2 to 97.7 µM)
[4]
  MIC: > 50 µg/mL
[5]
  MIC: < 6.25 µg/mL
[6]
  MIC: > 50 µg/mL
[7]
  MIC: < 6.25 µg/mL
[8]
  MIC: < 6.25 µg/mL
[9]
  MIC: < 6.25 µg/mL
[10]
  MIC: 6.25 to 50 µg/mL (≈ 12.2 to 97.7 µM)
[11]
  MIC: < 6.25 µg/mL
[12]
  MIC: < 6.25 µg/mL
[13]
  IC50: < 100 nM
[14]
  MIC: < 6.25 µg/mL
[15]
  MIC: < 6.25 µg/mL
